In US20240122876A1, “COMPOSITIONS AND METHODS FOR THE TREATMENT OF OCULAR DISORDERS” (Case Western Reserve University, priority 2021, published 2024):
“And” between values parts separate entries of the source, which are not always exact repeats. Equal entries are not always repeated. “Also recorded” adds a separate entry of the source.

Legend:
RPE65 = RPE65 (Bos taurus (Bovine), UniProt Q28175); assay: RPE65 retinoid isomerase activity assay (11-cis-retinol production by bovine RPE microsomes); format: biochemical; details: for IC50: inhibition of RPE65-mediated isomerization, decline in 11-cis-retinol production, bovine RPE microsomes
Chain of RPE65 (Q28175 whole entry): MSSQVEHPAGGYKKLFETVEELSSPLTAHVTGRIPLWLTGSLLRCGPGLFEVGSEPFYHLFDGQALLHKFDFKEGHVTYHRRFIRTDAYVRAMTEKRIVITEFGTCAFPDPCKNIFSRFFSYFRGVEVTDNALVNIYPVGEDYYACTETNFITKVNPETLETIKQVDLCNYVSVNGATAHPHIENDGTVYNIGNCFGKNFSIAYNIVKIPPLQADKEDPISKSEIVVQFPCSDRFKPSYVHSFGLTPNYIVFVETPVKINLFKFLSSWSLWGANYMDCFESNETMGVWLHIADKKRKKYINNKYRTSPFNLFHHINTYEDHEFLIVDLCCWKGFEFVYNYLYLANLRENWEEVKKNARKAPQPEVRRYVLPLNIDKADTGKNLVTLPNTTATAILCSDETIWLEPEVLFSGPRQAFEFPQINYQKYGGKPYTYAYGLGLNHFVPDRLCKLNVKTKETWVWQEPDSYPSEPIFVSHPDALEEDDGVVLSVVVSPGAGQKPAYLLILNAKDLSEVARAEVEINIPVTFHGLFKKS
Description: After incubation at room temperature for 5 min, the resulting mixture was mixed with half microliter of all-trans-retinol (5 mM) in DMF, and then incubated at 37° C. for 1 h. The reaction was quenched by adding 400 μL of methanol (Fisher Chemical, Fair Lawn, NJ), and the products were extracted with 400 μL of hexanes.

[1] = Quantification of primary amine compound levels in serum and eyes of mice after intraperitoneal treatment (LC-MS/MS); format: in vivo; details: mouse, 380 nmol i.p.; for initial plasma (serum) level: 3 h
Description: Eight weeks old BL/6J mice were treated with 380 nmol visual cycle modulator 24, 49, 57, 58, 59 or emixustat in DMSO (50 μL) by intraperitoneal injection, and sacrificed at 3 h, 1 day, or 7 days later. Blood and eyeball samples were collected immediately. After clotting at room temperature for 30 min, the blood samples were centrifuged for 10 minutes at 17,000 g in a temperature-controlled benchtop centrifuge (Eppendorf AG). Each serum sample (100 μL) was carefully removed to avoid disturbing loose clots, precipitated with […] of pre-cooled methanol, and centrifuged at 17,000 g for 15 min at 4° C. The supernatant was carefully transferred to a SpinX centrifuge tube filter with a 0.45 μm cellulose acetate membrane (Costar, Salt Lake City, UT), and centrifuged at 7,000 g for 2 min. Filtered samples were dried under vacuum, reconstituted in 100 μL 50% methanol/water, and centrifuged at 17,000 g for 15 min at 4° C. The resulting supernatants were ready for Liquid Chromatography/Mass Spectrometry analyses. The two eyeballs from each mouse were homogenized in acetonitrile (2×800 μL). The resulting mixture was centrifuged at 17,000 g for 15 min at 4° C. The supernatant was dried under vacuum, reconstituted in 100 μl 50% methanol/water, and centrifuged at 17,000 g for 15 min at 4° C. Twenty microliters of the supernatant extracted from serum or eye samples was injected into an Ultimate 3000 HPLC system coupled with LXQ mass spectrometer (ThermoFisher Scientific, Waltham, MA) with an electrospray ionization unit.

[2] = RPE65 inhibition, ratio of IC50

SMILES | IC50 (RPE65) | other results
CCCC(CCC)COc1ccc(F)c(C(O)CCN)c1 (racemic) [Compound 27, (S/R)-3-amino-1-(2-fluoro-5-((2-propylpentyl)oxy)phenyl)propan-1-ol] | 0.157 ± 0.024 µM | –
CCCC(CCC)COc1cccc([C@H](O)CCN)c1 [(R)-MB-004, reference compound] | 0.106 ± 0.016 µM | –
CCCC(CCC)COc1cc(F)cc(C(O)CCN)c1 (racemic) [Compound 26, (S/R)-3-amino-1-(3-fluoro-5-((2-propylpentyl)oxy)phenyl)propan-1-ol] | 0.184 ± 0.024 µM | –
CCCC(CCC)COc1cccc(C(O)CCN)c1F (racemic) [Compound 29, (S/R)-3-amino-1-(2-fluoro-3-((2-propylpentyl)oxy)phenyl)propan-1-ol] | 0.287 ± 0.283 µM | –
CC1=C(COc2cccc(C(O)CCN)c2F)C(C)(C)CCC1 (stereo not shown) [Compound 56, 3-amino-1-(2-fluoro-3-((2,6,6-trimethylcyclohex-1-en-1-yl)methoxy)phenyl)propan-1-ol] | 0.169 ± 0.013 µM | –
CCCC(CCC)COc1cccc(C(O)CCN)c1F (racemic) [Compound 30, (S/R)-3-amino-1-(2-fluoro-3-((2-propylpentyl)oxy)phenyl)propan-1-ol] | 0.274 ± 0.047 µM | –
CC1=C(COc2cc(F)cc(C(O)CCN)c2)C(C)(C)CCC1 (stereo not shown) [Compound 54, 3-amino-1-(3-fluoro-5-((2,6,6-trimethylcyclohex-1-en-1-yl)methoxy)phenyl)propan-1-ol] | 0.292 ± 0.089 µM | –
CCCC(CCC)COc1cc(F)cc(C(O)CCN)c1 (racemic) [Compound 25, (S/R)-3-amino-1-(3-fluoro-5-((2-propylpentyl)oxy)phenyl)propan-1-ol] | 0.295 ± 0.132 µM | –
CCCC(CCC)COc1ccc(F)c(C(O)CCN)c1 (racemic) [Compound 28, (S/R)-3-amino-1-(2-fluoro-5-((2-propylpentyl)oxy)phenyl)propan-1-ol] | 0.132 ± 0.019 µM | –

Further lines, with some results ahead:

IC50 (RPE65) | SMILES | other results
0.177 ± 0.011 µM | CCCC(CCC)COc1cc([C@@H](O)CCN)ccc1F [Compound 23, (S)-3-Amino-1-(4-fluoro-3-((2-propylpentyl)oxy)phenyl)propan-1-ol] | –
0.05 ± 0.009 µM | CCCC(CCC)COc1cc([C@H](O)CCN)ccc1F [Compound 24, (R)-3-Amino-1-(4-fluoro-3-((2-propylpentyl)oxy)phenyl)propan-1-ol] | inhibitory potency / IC50 relative to (R)-MB-004 (RPE65; [2]): twice; also recorded: approximately two-fold lower; inhibitory potency relative to racemic emixustat (RPE65; [2]): 3 times; distribution within ocular tissue [1]: poorest distribution within ocular tissue; plasma half-life [1]: longer plasma half-life; initial plasma (serum) level [1]: highest initial plasma levels
0.124 ± 0.021 µM | CC1=C(COc2ccc(F)c(C(O)CCN)c2)C(C)(C)CCC1 (stereo not shown) [Compound 55, 3-amino-1-(2-fluoro-5-((2,6,6-trimethylcyclohex-1-en-1-yl)methoxy)phenyl)propan-1-ol] | –
0.358 ± 0.042 µM | NCCC(O)c1cccc(OCC2CCCCC2)c1F (stereo not shown) [Compound 52, 3-amino-1-(3-(cyclohexylmethoxy)-2-fluorophenyl)propan-1-ol] | –
0.095 ± 0.005 µM | NCCC(O)c1ccc(F)c(OCC2CCCCC2)c1 (stereo not shown) [Compound 49, 3-amino-1-(3-(cyclohexylmethoxy)-4-fluorophenyl)propan-1-ol] | distribution within ocular tissue [1]: poorest distribution within ocular tissue; initial plasma (serum) level [1]: highest initial plasma levels
0.284 ± 0.02 µM | CC1=C(COc2cc(C(O)CCN)ccc2F)C(C)(C)CCC1 (stereo not shown) [Compound 53, 3-amino-1-(4-fluoro-3-((2,6,6-trimethylcyclohex-1-en-1-yl)methoxy)phenyl)propan-1-ol] | –
0.145 ± 0.009 µM | NCCC(O)c1cc(OCC2CCCCC2)ccc1F (stereo not shown) [Compound 51, 3-amino-1-(5-(cyclohexylmethoxy)-2-fluorophenyl)propan-1-ol] | –
0.201 ± 0.023 µM | NCCC(O)c1cc(F)cc(OCC2CCCCC2)c1 (stereo not shown) [Compound 50, 3-amino-1-(3-(cyclohexylmethoxy)-5-fluorophenyl)propan-1-ol] | –
0.323 ± 0.145 µM | CC1=C(COc2cccc([C@H](O)CCN)c2)C(C)(C)CCC1 [(R)-MB-001, reference compound] | –
0.269 ± 0.04 µM | [2H]C([2H])(N)CC(O)c1cccc(OCC2CCC(F)(F)CC2)c1 (stereo not shown) [Compound 59, 3-amino-1-(3-((4,4-difluorocyclohexyl)methoxy)phenyl)propan-3,3-d2-1-ol] | –
0.1 µM and 0.103 µM | NCCC(O)c1cccc(OCC2CCC(F)(F)CC2)c1 (stereo not shown) [Compound 57, 3-amino-1-(3-((4,4-difluorocyclohexyl)methoxy)phenyl) propan-1-ol] | distribution within ocular tissue [1]: further enhanced ocular distribution
